Article PMC8502973 (Frontiers in Physiology, 2021)
Entries after “also recorded” stand apart in the source; their conditions may differ.

How the values were obtained:
[1] = set-up: method as in Freeman et al., 2016; conditions: peripheral administration, macaques; ref Freeman et al., 2016; cited from earlier work
[2] = Long-term (28-day) drug intervention: body weight; type: in vivo, male DIO Sprague Dawley rats
Protocol: (§1) Sprague Dawley rats (male, ∼4 weeks of age, 51–75 g body weight) were switched from standard chow to a high fat diet (Research Diets, Diet # D12492, 60, 20, 20%kcal from fat, protein, and carbohydrate, respectively, 5.21 kcal/g; stored at −20°C). The rats were maintained on this diet for approximately 15 weeks prior to the start of experiments to develop a diet-induced overweight (DIO) model. Animals were individually housed on a 12 h/12 h light/dark cycle (lights on at 04:00 h) in a temperature (23°C) and humidity (mean 50%, SD 10%) controlled room. All body weight measurements were made just prior to the start of the dark cycle.
(§2) Male DIO Sprague Dawley rats (n = 24) were generated as outlined above and were 644.5 g (50 g) at the start of drug treatment. The animals were divided into three treatment groups (n = 8 each) balanced for body weight, body weight gain during baseline, food intake, and Lee Index [body weight^(1/3)/snout to anus length (mm)] ([Lee, 1929]; [Simson and Gold, 1982]) as an indicator of adiposity (Figure 2). In a subset of the animals (n = 5 per group, balanced for prior mentioned criteria), Mini-Mitter transponders (PDT-4000 E-Mitter, Respironics Inc.) were implanted posterior to the left scapula at least 9 days prior to start of baseline measures to ensure sufficient recovery time. Body temperature and gross motor activity were continuously recorded via these transponders. […] High fat diet and water were provided ad libitum and intake was recorded with daily hopper and water bottle weighs at time of body weight assessment just prior to drug administration. Blood samples were taken at start of intervention by tail vein bleeding and via cardiac puncture under an isoflurane induced surgical plane of anesthesia at euthanasia. Animals were euthanized on treatment day 29, 4 h after receiving a dose of their assigned treatment, via decapitation under isoflurane anesthesia immediately following blood draw. Body composition was assessed on carcasses.
From treatment day 8 on the doses were maintained to assess long-term efficacy at a therapeutically meaningful dose.

[3] = Toxicity / mortality; type: in vivo; conditions: rat, in vivo, sc
[4] = cited from earlier work
Excerpt: (§3) Finally, the potential for toxic side effects upon chronic administration at high concentration and/or f ...

[5] = Dose escalation: kaolin intake (pica, nausea/visceral malaise); type: in vivo, male DIO Sprague Dawley rats
Protocol: as §1
(§4) Sequential rounds of a 3-day baseline phase (vehicle treated), a 3-day treatment phase, and a washout phase (2–5 days as necessary) were tested. […] High fat diet was accessible to the rats from all but the last 6 h of the light cycle and water was provided ad libitum. This daily period of food restriction was used to prevent incidental feeding in the event animals were disturbed from their sleep by noise from surrounding rooms. To assess a potential pica response (nausea/visceral malaise) in animals, powdered kaolin (Sigma-Aldrich, K1512) was made available on drug treatment days with a restriction period similar to the high fat diet. Prior to the first experiment, rats were provided access to kaolin for 2 days so that they could familiarize themselves with it prior to start of testing. Food and kaolin intake were continuously recorded using AccuScan DietMax (currently OmniTech Electronics, Inc., Diet System) cages. The high fat diet was compressed in the food tray to form a solid block of food. This allows for more accurate meal size measurements by preventing the animals from removing entire pellets at time. All food and kaolin intake data were binned into 15-min intervals for analysis and the start of the 24-h food intake period aligned to the lights turning off in the animal room. Body weight was recorded, and treatment injections were administered just prior to the start of the dark cycle.

[6] = Dose escalation: body weight change; type: in vivo, male DIO Sprague Dawley rats; conditions: sc once daily
Protocol: as §1
(§5) Sequential rounds of a 3-day baseline phase (vehicle treated), a 3-day treatment phase, and a washout phase (2–5 days as necessary) were tested. […] High fat diet was accessible to the rats from all but the last 6 h of the light cycle and water was provided ad libitum. This daily period of food restriction was used to prevent incidental feeding in the event animals were disturbed from their sleep by noise from surrounding rooms. […] Food and kaolin intake were continuously recorded using AccuScan DietMax (currently OmniTech Electronics, Inc., Diet System) cages. […] Body weight was recorded, and treatment injections were administered just prior to the start of the dark cycle.

[7] = Long-term: body composition of carcasses by quantitative magnetic resonance; type: in vivo, male DIO Sprague Dawley rats
Excerpt: as §2
Body composition (total and relative fat mass, lean mass, and water content) was assessed on carcasses from the long-term drug intervention study using Quantitative Magnetic Resonance (EchoMRI 4-in-1, Echo Medical Systems, Houston, TX) at the Rodent Metabolic and Behavioral Phenotyping Core at the VA Puget Sound Health Care System (VAPSHCS).

[8] = Dose escalation: food intake; type: in vivo, male DIO Sprague Dawley rats
Protocol: as §1, §4

[9] = 2015, cited from earlier work
Excerpt: OXT is a downstream target of the adipose tissue hormone leptin.

[10] = tested on: OXTR compared with the V1aR; set-up: method as in Akerlund et al., 1999; conditions: ref Akerlund et al., 1999; cited from earlier work
Excerpt: as §3

[11] = Long-term: gross motor activity and body temperature (Mini-Mitter transponders); type: in vivo, male DIO Sprague Dawley rats; conditions: 28-day study, n = 5 per group, first 12 days analysed
Excerpt: as §2
For comparisons of mean longitudinal changes in body temperature and activity, only the first 12 days of treatment, divided into three 4-day phases, were included in the analysis. These 4-day phases allowed for analyses to consider the ASK1476 dose titration.

[12] = tested on: hV1aR; set-up: method as in 3 sources, one per row (each row's own in cited_ref): ref Wiśniewski et al. (2014) ||| ref Modi et al. (2016) ||| ref Modi et al., 2016; conditions: OXT; ref Wiśniewski et al. (2014); cited from earlier work
[13] = tested on: hOXTR; set-up: method as in 2 sources, one per row (each row's own in cited_ref): ref Wiśniewski et al. (2014) ||| ref Modi et al. (2016); conditions: OXT; ref Wiśniewski et al. (2014); cited from earlier work
[14] = Dose escalation: water intake; type: in vivo, male DIO Sprague Dawley rats; conditions: sc once daily; ASK1476 F(1.80, 12.61) = 3.15, p = 0.082; OXT F(1.68, 11.72) = 4.05, p = 0.086
Protocol: as §1, §5

oxytocin [OXT]
entry into the CSF from the periphery [1]: only small amounts | compensatory weight gain / weight regain following nadir ([2]; 28-d treatment): significantly lower rates of weight regain following body weight nadir | average day of body weight nadir ([2]; 28-day treatment, sc once daily): 14 days | daily percent change of body weight from nadir, mean difference vs. vehicle ([2]; OXT: 95% CI −0.23 to 0.01, p = 0.069): −0.11% | Body weight, post-treatment ([2]; after 28-day Tx, ASK1476 to 120 or OXT 600 nmol/kg/d sc, n = 8, Mean ± SD, oxytocin * p < 0.05 vs vehicle, ANOVA p 0.041): 615.143.2* g | reduction in body weight, OXT 600 nmol/kg/d compared with ASK1476 30 and 60 nmol/kg ([2]; long-term study, titration phases): significantly greater reductions in body weight | average daily individual percent change of body weight from nadir to end of treatment ([2]; mean, SD 0.04% ASK1476, 0.16% OXT, vehicle 0.34% (SD 0.05%)): 0.23% | weight stability during final 20 days ([2]; treatment days 9-28): remained weight stable | adverse effects or tolerability issues [3]: No adverse effects or tolerability issues were observed | half-life in vivo [4]: ~5 min | visceral malaise signal (notably high kaolin intake in a few animals) ([5]; ASK1476 dosing spectrum): not observed in any | kaolin intake at low doses ([5]; low doses, sc once daily): below 4 g/d | kaolin intake, effect of treatment ([5]; sc once daily, ASK1476 6-300 nmol/kg F(1.80, 12.59) = 2.26, p = 0.148, OXT 20-1200 nmol/kg F(1.51, 10.52) = 1.73, p = 0.223): no significant effect of treatment | body weight gain across dosing spectrum ([6]; ASK1476 6-300 nmol/kg, OXT 20-1200 nmol/kg, 3 days): Significant reductions in body weight gain; also recorded: effective in reducing body weight gain across the dose spectrum | interaction of treatment and dose on body weight change ([6]; ASK1476 F(2.08, 15.54) = 9.50, p = 0.002, OXT F(2.40, 16.79) = 16.98, p < 0.0001): significant interaction | fat mass, difference vs vehicle ([7]; OXT 600 nmol/kg/d 28 days, 95% CI −97.2 to 7.2, p = 0.103): -45.0 g | lean mass, difference vs vehicle ([7]; OXT 600 nmol/kg/d 28 days, 95% CU −109.8 to −5.4, p = 0.028): -57.6 g | Lean mass, post-treatment ([7]; after 28-day Tx, n = 8, Mean ± SD, oxytocin * p < 0.05 vs vehicle, ANOVA p 0.015): 416.531.9* g | reduction in 3-day averaged food intake ([8]; OXT 20 nmol/kg sc once daily vs 3-day saline baseline, n = 8, 95% CI −19.40 to −2.94, p = 0.0106): -11.17 kcal/day | lowest dose with significant reduction in 3-day averaged food intake ([8]; sc once daily, 3 days, n = 8): 20 nmol/kg | interaction of treatment and dose on 3-day averaged food intake ([8]; sc once daily, ASK1476 F(2.84, 19.86) = 6.52, p = 0.003, OXT F(1.89, 13.25) = 9.49, p = 0.003): significant interaction | food intake, energy expenditure and weight gain ([9]; peripheral administration, diet-induced and genetically obese rodent models, ref Maejima et al., 2011, Morton et al., 2012, Blevins et al.): reduces food intake, enhances energy expenditure, and prevents or reduces weight gain | energy expenditure / weight loss in diet-induced obese non-human primates ([9]; ref Blevins et al.): elicits weight loss, in part, by increasing energy expenditure | affinity for the OXTR compared with the V1aR [10]: fivefold greater affinity | locomotor activity or body temperature [11]: did not find any evidence | locomotor activity or body temperature ([11]; listed as oxytocin): no effects were detected on locomotor activity or body temperature | EC50 [12]: 10 nM | EC50 [13]: 2.3 nM | water intake [14]: not significantly affected
